The values below come from PMC8399019, “Inhibition of Cysteine Proteases by 6,6′-Dihydroxythiobinupharidine (DTBN) from Nuphar lutea” (Molecules, 2021).

Common to all, as to assay type: biochemical
In one test the target is T1, Papain Latex (Carica papaya, UniProt P00784).
T1 construct: purchased Sigma-Aldrich p3125
The test can be described thus: Enzyme inhibition assay, Papain Latex (casein-FITC). On the procedure: (§1) Enzyme inhibition assays were performed in triplicates using transparent 96-well plates for Calpain, Trypsin, Papain, Cathepsin L and Cathepsin B (167008; Nunc, Roskilde, Denmark), or black ones for Cathepsin S, (Greiner 96 Polystyrol GRE96fb), according to manufacturers’ instructions. Briefly, a reaction mixture of 100 µL contained: 45µL of enzyme in assay buffer, 5 µL of inhibitor diluted in DMSO. 50 µL substrate prepared in assay buffer according to manufacturers’ instructions. The inhibitor was serially diluted in DMSO to concentrations from 0.0075 µg/µL to 0.0000075 µg/µL. A total of […] DMSO was added to the control sample. The enzyme substrate mix was added last, just before starting the fluorometric measurement. Data were collected for 1.5 h at 60 sec intervals.
(§2) Papain Latex (cat. No. p3125), Human Cathepsin B (cat.no. C0150), Trypsin and Calpain (cat. No. ab910119) and the substrate, casein-FITC, were obtained from Sigma-Aldrich. The assay was carried out in 0.3 M potassium chloride, 0.1 mM EDTA, and 3 mM DTT pH 6.5. Ex/Em = 485–535 nm. Human Cathepsins S (cat. No. 1183-cy) and L (cat.no. ab174030) and their substrates were Mca-RPKPVE-Nval-WRK (Dnp)-NH2 (ES002) and Ac-FR-AFC, respectively. They were obtained from ABCAM. Assay buffer for Human Cathepsin S was 50 mM NaOAc, 250 mM NaCl, 5 mM DTT pH 4.5. […]

Another test has as its target T2, Human Cathepsin S (Homo sapiens, UniProt P25774).
T2 construct: purchased ABCAM (so in the source) 1183-cy
The test can be described thus: Enzyme inhibition assay, Human Cathepsin S (fluorometric). Conditions: triplicates, value (SD). As to the method: as §1, §2

The next test addresses T3, Human Cathepsin B (Homo sapiens, UniProt P07858).
T3 construct: purchased Sigma-Aldrich C0150
The test can be described thus: Enzyme inhibition assay, Human Cathepsin B (casein-FITC). Conditions: triplicates, value (SD). As to the method:
as §1, §2

For another test, the target named is T4, Human Cathepsin L (Homo sapiens, UniProt P07711).
T4 construct: purchased ABCAM ab174030
The test can be described thus: Enzyme inhibition assay, Human Cathepsin L (fluorometric). Conditions: triplicates, value (SD). On the procedure: as §1, §2

Molecules are shown by their SMILES.

T4 sequence (P07711 114-333): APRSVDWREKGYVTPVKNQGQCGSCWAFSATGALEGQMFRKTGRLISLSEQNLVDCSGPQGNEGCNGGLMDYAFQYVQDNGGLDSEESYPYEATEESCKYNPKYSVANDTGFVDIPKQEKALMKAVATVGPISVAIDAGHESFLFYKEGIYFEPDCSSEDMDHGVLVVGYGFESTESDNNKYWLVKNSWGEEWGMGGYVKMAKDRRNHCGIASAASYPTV
T1 sequence (P00784 134-345): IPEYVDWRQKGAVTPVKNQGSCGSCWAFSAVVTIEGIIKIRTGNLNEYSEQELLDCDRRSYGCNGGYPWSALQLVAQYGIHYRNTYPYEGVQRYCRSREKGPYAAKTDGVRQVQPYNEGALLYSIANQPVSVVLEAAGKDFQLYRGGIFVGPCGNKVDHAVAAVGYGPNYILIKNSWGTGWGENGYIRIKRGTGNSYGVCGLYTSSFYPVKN
T2 sequence (P25774 115-331): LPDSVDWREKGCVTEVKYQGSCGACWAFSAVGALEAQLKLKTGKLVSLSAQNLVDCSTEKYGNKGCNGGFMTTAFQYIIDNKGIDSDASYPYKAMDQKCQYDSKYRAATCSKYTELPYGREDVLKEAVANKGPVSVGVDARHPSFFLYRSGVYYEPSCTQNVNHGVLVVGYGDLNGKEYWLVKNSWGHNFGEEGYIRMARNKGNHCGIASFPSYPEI

Consider `CC1CCC(c2ccoc2)N2C1CCC1(CSC3(CCC4C(C)CCC(c5ccoc5)N4C3O)C1)C2O` (stereo not shown) [DTBN, 6,6′-dihydroxythiobinupharidine], for which the IC50 (commonly the midpoint of a concentration-inhibition curve) at Papain Latex stood at 70.4 µM; against Human Cathepsin S, 3.2 µM; on Human Cathepsin B it was 1360 µM; on Human Cathepsin L, 13.2 µM.
